Test results from publication PMC2765688, “Functional Characterization of N-Terminally GFP-Tagged GLP-1 Receptor” (Journal of Biomedicine and Biotechnology, 2009).

Tests used:
[1] = target: T1, human GLP-1 receptor (Homo sapiens, UniProt P43220); assay: cAMP production, CHO cells expressing GLP-1 receptor; assay type: cell-based; details: 10 μM forskolin, 15 min, 37°C, P < .001
T1 construct: expressed in transfected cells; host or cells: CHO cells, transient transfection, pcDNA3
Procedure: (§1) Cells were plated in 6-well plates at 50 × 10^4 cells/well and incubated 24 hours in growth medium supplemented with 10% fetal bovine serum.
(§2) After stimulation, stimulating buffer was removed and replaced with 150 μL of TE buffer (50 mM Tris, 5 mM EDTA, pH = 7.4). Cells were lysed by scraping, followed by boiling at 100°C for 5 minutes and centrifuged at 16000× g for 10 minutes. The supernatant was collected and the total content of cAMP was measured by a specific radioimmunoassay (Amersham).
(§3) Statistical analysis (one-way ANOVA) was carried out by Prism 4 computer program (GraphPad Software, USA), which was used also for graphical presentation of the results. In ANOVA analysis Tukey-Kramer multiple comparison test was used to reveal significant differences between groups of interest; P > .05 was not considered significant.

[2] = target: T2, GFP-GLP-1 receptor (Homo sapiens, UniProt P43220); assay: cAMP production, CHO cells expressing GFP-GLP-1 receptor; assay type: cell-based; details: 10 μM forskolin, 15 min, 37°C
T2 construct: linker: translated MCS of pEGFP-C3 plus translated 5'-untranslated region of clone hGLPR-6(20), between EGFP and the receptor (N); expressed in transfected cells; host or cells: CHO cells, transient transfection, pEGFP-C3
Procedure: as §1, §2, §3

- cAMP production in response to forskolin (in words) [1]: significantly increased
- cAMP production in response to forskolin (in words) ([2]; CHO cells expressing GFP-GLP-1 receptor, P < .001): significantly increased
- Sensitivity to forskolin of GFP-GLP-1 receptor cells in comparison to GLP-1 receptor cells (in words) ([2]; Tukey-Kramer test): not more sensitive
Compound: C=C[C@@]1(C)CC(=O)[C@]2(O)[C@@]3(C)[C@@H](O)CCC(C)(C)[C@@H]3[C@H](O)[C@H](OC(C)=O)[C@@]2(C)O1 [forskolin]
